From patent US9301938B2, “Composition and method for treatment of diabetes” (BioKier, Inc., priority 2009, dated 2016)

Experiments:
obese diabetic patients [1] = assay: Oral Glucose Tolerance Test (OGTT) or standardized meal after a single dose; format: in vivo, human; conditions: overnight fasted patients
Protocol: Drug is delivered as an enema or suppositories made as described in^1 (containing 1 g of glutamine). 10 overnight fasted obese diabetic patients with impaired gut hormone effect^3 and/or impaired gut hormone secretion^4,5 are dosed rectally with one suppository (or enema). 30 minutes after drug administration, patients are subjected to Oral Glucose Tolerance Test (OGTT) or standardized meal. Blood is collected at the following time points: −30, 0, 5; 10, 15, 30, 60, 90, and 120 minutes. Blood is analyzed for levels of: glucose, insulin, GLP-1, PYY, other hormones and lipids. […] Drug is delivered as an enema or suppositories made as described in^1 (containing 2 g of butyric acid). 10 overnight fasted obese diabetic patients with impaired incretin effect^3 and/or impaired gut hormone secretion^4,5 are dosed rectally with one suppository (or enema). 30 minutes after drug administration, patients are subjected to Oral Glucose Tolerance Test (OGTT) or standardized meal. Blood is collected at the following time points: −30, 0, 5; 10, 15, 30, 60, 90, and 120 minutes. Blood is analyzed for levels of: glucose, insulin, GLP-1, PYY, other hormones and lipids. […] Tablets formulated with MMX technology (containing 1 g of glutamine) are made as described in^2. 10 overnight fasted obese diabetic patients with impaired gut hormone effect^3 and/or impaired gut hormone secretion^4,5 are dosed with one MMX tablet at 8:00 AM. 4 hrs after drug administration, patients are subjected to Oral Glucose Tolerance Test (OGTT) or standardized meal. Blood is collected at the following time points: −30, 0, 5; 10, 15, 30, 60, 90, and 120 minutes. Blood is analyzed for levels of: glucose, insulin, GLP-1, PYY, other hormones and lipids. […] Tablets formulated with MMX technology (containing 2 g of butyric acid) are made as described in^2. 10 overnight fasted obese diabetic patients with impaired gut hormone effect^3 and/or impaired gut hormone secretion^4,5 are dosed with one MMX tablet at 8:00 AM. 4 hrs after drug administration, patients are subjected to Oral Glucose Tolerance Test (OGTT) or standardized meal. Blood is collected at the following time points: −30, 0, 5; 10, 15, 30, 60, 90, and 120 minutes. Blood is analyzed for levels of: glucose, insulin, GLP-1, PYY, other hormones and lipids.

obese diabetic patients [2] = assay: Six-week once-daily MMX tablet treatment with OGTT or standardized meal; format: in vivo, human; conditions: one MMX tablet daily before first meal for six weeks
Protocol: Tablets formulated with MMX technology (containing 1 g of glutamine) are made as described in^2. 10 obese diabetic patients with impaired incretin effect^3 and/or impaired incretin secretion^4,5 are dosed with one MMX tablet at 8:00 AM before first meal for six (6) weeks. HbA1c, fasting glucose and insulin are measured before treatment and at 1, 2, and 6 weeks after initiation of the treatment. Additionally, patients are subjected at these times to Oral Glucose Tolerance Test (OGTT) or standardized meal. Blood is collected at the following time points: −30, 0, 5; 10, 15, 30, 60, 90, and 120 minutes. Blood is analyzed for levels of: glucose, insulin, GLP-1, PYY, other hormones and lipids. […] Tablets formulated with MMX technology (containing 2 g of butyric acid) are made as described in^2. 10 obese diabetic patients with impaired gut hormone effect^3 and/or impaired gut hormone secretion^4,5 are dosed with one MMX tablet at 8:00 AM before first meal for six (6) weeks. HbA1c, fasting glucose and insulin are measured before the treatment and at 1, 2, and 6 weeks after initiation of the treatment. Additionally, patients are subjected at these times to Oral Glucose Tolerance Test (OGTT) or standardized meal. Blood is collected at the following time points: −30, 0, 5; 10, 15, 30, 60, 90, and 120 min. Blood is analyzed for levels of: glucose, insulin, GLP-1, PYY, other hormones and lipids.

[3] = one MMX tablet orally, 4 hrs before OGTT or standardized meal
[4] = one MMX tablet orally, 4 hrs before standardized meal
[5] = one suppository or enema rectally, 30 minutes before OGTT or standardized meal
[6] = one suppository or enema rectally, 30 minutes before standardized meal

SMILES: NC(=O)CC[C@H](N)C(=O)O [glutamine]
- Glucose levels (obese diabetic patients [1]; [3]): decrease
- lipids levels (after standardized meal) (obese diabetic patients [1]; [4]): decrease
- Glucose levels (obese diabetic patients [1]; [5]): decrease
- lipids levels (after standardized meal) (obese diabetic patients [1]; [6]): decrease
- Glucose levels (obese diabetic patients [2]): decrease
- triglycerides levels versus pre-treatment (obese diabetic patients [2]): lower than pre-treatment levels

SMILES: CCCC(=O)O [butyric acid]
- Glucose levels (obese diabetic patients [1]; [3]): decrease
- lipids levels (after standardized meal) (obese diabetic patients [1]; [4]): decrease
- Glucose levels (obese diabetic patients [1]; [5]): decrease
- lipids levels (after standardized meal) (obese diabetic patients [1]; [6]): decrease
- Glucose levels (obese diabetic patients [2]): decrease
- triglycerides levels versus pre-treatment (obese diabetic patients [2]): lower than pre-treatment levels
